Assay results: patent US20140088306A1, “RADIOACTIVE FLUORINE-LABELED QUINOXALINE COMPOUND” (Nihon Medi-Physics Co., Ltd., priority 2012, published 2014)
Entries after “also recorded” stand apart in the source; their conditions may differ.

What was measured:
Aβ plaques = assay: In vitro autoradiography using postmortem brain section from Alzheimer's disease (Examples 14, 15); assay type: binding, human (Alzheimer's disease patient); conditions: brain section of Alzheimer's disease patient
Procedure: A postmortem autopsy brain tissue of a patient with Alzheimer's disease identified by postmortem dissection was obtained from Graduate School of Medicine, Kyoto University. The presence and location of senile plaques in the section were confirmed by immunohistochemical staining using an anti-Aβ1-42 antibody. The section was incubated together with [^18F]D1 or [^18F]D2 (0.37 MBq/100 μL) at room temperature for 1 hour. The resultant was immersed in a 50 volume % ethanol aqueous solution (2 minutes×2) and washed with water (2 minutes×2). After drying, the section was exposed to BAS imaging plate (from Fujifilm Corporation) for 1.5 hours. The image of autoradiography was obtained using BAS5000 scanner system (from Fujifilm Corporation).
A postmortem autopsy brain tissue of a patient with Alzheimer's disease identified by postmortem dissection was obtained from Graduate School of Medicine, Kyoto University, and serial sections […] of a paraffin-embedded brain tissue were used. First, they were each incubated with xylene (15 minutes×2), ethanol (1 minute×2), a 90 volume % ethanol aqueous solution (1 minute×2), and a 70 volume % ethanol aqueous solution (1 minute×1) in that order to perfectly perform deparaffinization, and then washed in water (2.5 minutes×2). Thereafter, for antibody recovery, the section was subjected to autoclave treatment for 15 minutes in 0.01 mol/L citrate buffer solution (pH 6.0). The resultant was incubated in PBS-Tween20 (5 minutes×2), and, for antibody recovery, incubated in a 90 volume % formic acid aqueous solution at room temperature for 5 minutes. The section was washed for 5 minutes with flowing tap water, and then incubated in PBS-Tween20 (2 minutes×1). The section was incubated with a mouse anti-Aβ1-42 monoclonal primary antibody (from Wako Pure Chemical Industries Ltd.) at room temperature overnight. The resultant was incubated in PBS-Tween20 (5 minutes×3) and then incubated together with biotin goat anti-mouse IgG (from Funakoshi Co., Ltd.) at room temperature for 1 hour. […]

[1] = In vivo radioactivity distribution experiment in normal mouse (Example 16); design: species or system ddY mice; conditions: normal ddY mice, tail vein, average for 5 mice (SD)
Procedure: An ethanol (10 μL)-containing saline solution of [^18F]D1 (25.8 kBq) or [^18F]D2 (48.2 kBq) (100 μL) was injected into the tail vein of ddY mice (male, 5-week old). Five mice were used for each group and sacrificed 2, 10, 30, and 60 minutes after administration to remove major organs. The blood and organs were weighed and further measured for radioactivity using a γ counter (Wallac 1470 Wizard 3, from Perkin-Elmer). The percent injected dose per organ was calculated by comparing tissue counts with suitably diluted aliquots of the injected material. The percent injected dose/g of each sample was calculated by comparing sample counts with the counts of the diluted initial dose.

Aβ plaques, sequence (P05067 672-711 limits assumed): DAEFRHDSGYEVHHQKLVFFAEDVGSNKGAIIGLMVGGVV

Substance: 4-(6-(2-[^18F]Fluoroethoxy)quinoxalin-2-yl)-N-methylaniline [[^18F]D2]
- binding to / background in the white matter by autoradiography (Aβ plaques): low degree of background in the white matter
- labeling of Aβ plaques by autoradiography (Aβ plaques; 0.37 MBq/100 μL, 1 hour): provided a strong marker for Aβ plaques; also recorded: corresponded to the results of antibody immunohistochemical staining
- Radioactivity Amount, Blood ([1]; 2 min. after): 3.91 (0.22) % injected dose/g
- Radioactivity Amount, Blood ([1]; 10 min. after): 3.35 (0.43) % injected dose/g
- Radioactivity Amount, Blood ([1]; 30 min. after): 3.83 (0.18) % injected dose/g
- Radioactivity Amount, Blood ([1]; 60 min. after): 4.15 (0.31) % injected dose/g
- Radioactivity Amount, Bone ([1]; 2 min. after): 2.81 (0.52) % injected dose/g
- Radioactivity Amount, Bone ([1]; 10 min. after): 2.12 (0.11) % injected dose/g
- Radioactivity Amount, Bone ([1]; 30 min. after): 2.86 (0.45) % injected dose/g
- Radioactivity Amount, Bone ([1]; 60 min. after): 4.26 (0.29) % injected dose/g
- Radioactivity Amount, Brain ([1]; 2 min. after): 6.19 (0.30) % injected dose/g
- Radioactivity Amount, Brain ([1]; 10 min. after): 5.11 (0.28) % injected dose/g
- Radioactivity Amount, Brain ([1]; 30 min. after): 2.73 (0.16) % injected dose/g
- Radioactivity Amount, Brain ([1]; 60 min. after): 2.41 (0.12) % injected dose/g
- Radioactivity Amount, Heart ([1]; 2 min. after): 6.12 (0.45) % injected dose/g
- Radioactivity Amount, Heart ([1]; 10 min. after): 3.93 (0.40) % injected dose/g
- Radioactivity Amount, Heart ([1]; 30 min. after): 3.20 (0.32) % injected dose/g
- Radioactivity Amount, Heart ([1]; 60 min. after): 3.80 (0.22) % injected dose/g
- Radioactivity Amount, Intestine ([1]; 2 min. after): 3.40 (0.34) % injected dose/g
- Radioactivity Amount, Intestine ([1]; 10 min. after): 8.06 (0.95) % injected dose/g
- Radioactivity Amount, Intestine ([1]; 30 min. after): 12.13 (2.05) % injected dose/g
- Radioactivity Amount, Intestine ([1]; 60 min. after): 13.37 (1.03) % injected dose/g
- Radioactivity Amount, Kidney ([1]; 2 min. after): 9.86 (0.77) % injected dose/g
- Radioactivity Amount, Kidney ([1]; 10 min. after): 6.40 (0.62) % injected dose/g
- Radioactivity Amount, Kidney ([1]; 30 min. after): 4.14 (0.31) % injected dose/g
- Radioactivity Amount, Kidney ([1]; 60 min. after): 3.08 (0.21) % injected dose/g
- Radioactivity Amount, Liver ([1]; 2 min. after): 8.81 (1.00) % injected dose/g
- Radioactivity Amount, Liver ([1]; 10 min. after): 9.29 (0.40) % injected dose/g
- Radioactivity Amount, Liver ([1]; 30 min. after): 7.07 (0.19) % injected dose/g
- Radioactivity Amount, Liver ([1]; 60 min. after): 6.10 (0.41) % injected dose/g
- Radioactivity Amount, Lung ([1]; 2 min. after): 8.13 (1.13) % injected dose/g
- Radioactivity Amount, Lung ([1]; 10 min. after): 5.10(0.74) % injected dose/g
- Radioactivity Amount, Lung ([1]; 30 min. after): 3.94 (0.33) % injected dose/g
- Radioactivity Amount, Lung ([1]; 60 min. after): 3.92 (0.11) % injected dose/g
- Radioactivity Amount, Pancreas ([1]; 2 min. after): 6.47 (0.75) % injected dose/g
- Radioactivity Amount, Pancreas ([1]; 10 min. after): 3.88 (0.52) % injected dose/g
- Radioactivity Amount, Pancreas ([1]; 30 min. after): 2.72 (0.29) % injected dose/g
- Radioactivity Amount, Pancreas ([1]; 60 min. after): 2.64 (0.34) % injected dose/g
- Radioactivity Amount, Spleen ([1]; 2 min. after): 3.14 (0.55) % injected dose/g
- Radioactivity Amount, Spleen ([1]; 10 min. after): 3.76 (0.55) % injected dose/g
- Radioactivity Amount, Spleen ([1]; 30 min. after): 3.07 (0.32) % injected dose/g
- Radioactivity Amount, Spleen ([1]; 60 min. after): 2.99 (0.21) % injected dose/g
- Radioactivity Amount, Stomach* ([1]; 2 min. after): 1.32 (0.21) % injected dose per organ
- Radioactivity Amount, Stomach* ([1]; 10 min. after): 1.86 (0.38) % injected dose per organ
- Radioactivity Amount, Stomach* ([1]; 30 min. after): 2.44 (0.62) % injected dose per organ
- Radioactivity Amount, Stomach* ([1]; 60 min. after): 2.00 (0.76) % injected dose per organ
